Results published in PubChem BioAssay (NCI).
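Cells were grown in 96-well plates and exposed to each compound for 48 hours at five concentrations; endpoints were interpolated linearly between bracketing concentrations, or set to the highest concentration if not reached. TGI is the concentration that stops growth completely.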

Legend:
Assay in all cases: NCI tumour cell line growth inhibition, 48 h
SF-295 CNS = tested on: SF-295 CNS
CAKI-1 renal = tested on: CAKI-1 renal
SN12C renal = tested on: SN12C renal
SK-MEL-5 melanoma = tested on: SK-MEL-5 melanoma
MOLT-4 leukemia = tested on: MOLT-4 leukemia
HT29 colon = tested on: HT29 colon
BT-549 breast = tested on: BT-549 breast
HCT-116 colon = tested on: HCT-116 colon
MALME-3M melanoma = tested on: MALME-3M melanoma
OVCAR-5 ovarian = tested on: OVCAR-5 ovarian
TK-10 renal = tested on: TK-10 renal
CCRF-CEM leukemia = tested on: CCRF-CEM leukemia
HOP-62 NSCLC = tested on: HOP-62 NSCLC
NCI-H23 lung = tested on: NCI-H23 lung
SNB-75 CNS = tested on: SNB-75 CNS
UO-31 renal = tested on: UO-31 renal
T-47D breast = tested on: T-47D breast
786-0 renal = tested on: 786-0 renal
NCI/ADR-RES ovarian = tested on: NCI/ADR-RES ovarian
KM12 colon = tested on: KM12 colon
NCI-H460 lung = tested on: NCI-H460 lung
A549 NSCLC = tested on: A549 NSCLC
K-562 leukemia = tested on: K-562 leukemia
OVCAR-3 ovarian = tested on: OVCAR-3 ovarian
OVCAR-8 ovarian = tested on: OVCAR-8 ovarian
U251 CNS = tested on: U251 CNS
UACC-62 melanoma = tested on: UACC-62 melanoma
HCT-15 colon = tested on: HCT-15 colon
HCC-2998 colon = tested on: HCC-2998 colon
COLO 205 colon = tested on: COLO 205 colon
MDA-MB-435 = tested on: MDA-MB-435
SNB-19 CNS = tested on: SNB-19 CNS
NCI-H522 lung = tested on: NCI-H522 lung
A498 renal = tested on: A498 renal
RXF 393 renal = tested on: RXF 393 renal
ACHN renal = tested on: ACHN renal
MDA-N = tested on: MDA-N
PC-3 prostate = tested on: PC-3 prostate
NCI-H226 lung = tested on: NCI-H226 lung
SW-620 colon = tested on: SW-620 colon
DU-145 prostate = tested on: DU-145 prostate
MDA-MB-231 breast = tested on: MDA-MB-231 breast
LOX IMVI melanoma = tested on: LOX IMVI melanoma
UACC-257 melanoma = tested on: UACC-257 melanoma
HS 578T breast = tested on: HS 578T breast
SK-MEL-2 melanoma = tested on: SK-MEL-2 melanoma
RPMI-8226 leukemia = tested on: RPMI-8226 leukemia
OVCAR-4 ovarian = tested on: OVCAR-4 ovarian
M14 melanoma = tested on: M14 melanoma
IGROV1 ovarian = tested on: IGROV1 ovarian
SF-268 CNS = tested on: SF-268 CNS
SK-MEL-28 melanoma = tested on: SK-MEL-28 melanoma
SK-OV-3 ovarian = tested on: SK-OV-3 ovarian
HL-60(TB) leukemia = tested on: HL-60(TB) leukemia
SR leukemia = tested on: SR leukemia
MCF7 breast = tested on: MCF7 breast

## CCOC(=O)c1[nH]c2nc(SC)nc(NC)c2c1N
SF-295 CNS
  TGI: > 100 µM
CAKI-1 renal
  TGI: > 100 µM
SN12C renal
  TGI: > 100 µM
SK-MEL-5 melanoma
  TGI: > 100 µM
MOLT-4 leukemia
  TGI: > 100 µM
HT29 colon
  TGI: > 100 µM
BT-549 breast
  TGI: > 100 µM
HCT-116 colon
  TGI: > 100 µM
MALME-3M melanoma
  TGI: > 100 µM
OVCAR-5 ovarian
  TGI: > 100 µM
TK-10 renal
  TGI: > 100 µM
CCRF-CEM leukemia
  TGI: > 100 µM
HOP-62 NSCLC
  TGI: > 100 µM
NCI-H23 lung
  TGI: > 100 µM
SNB-75 CNS
  TGI: > 100 µM
UO-31 renal
  TGI: > 100 µM
T-47D breast
  TGI: > 100 µM
786-0 renal
  TGI: > 100 µM
NCI/ADR-RES ovarian
  TGI: > 100 µM
KM12 colon
  TGI: > 100 µM
NCI-H460 lung
  TGI: > 100 µM
A549 NSCLC
  TGI: > 100 µM
K-562 leukemia
  TGI: > 100 µM
OVCAR-3 ovarian
  TGI: > 100 µM
OVCAR-8 ovarian
  TGI: > 100 µM
U251 CNS
  TGI: > 100 µM
UACC-62 melanoma
  TGI: > 100 µM
HCT-15 colon
  TGI: > 100 µM
HCC-2998 colon
  TGI: > 100 µM
COLO 205 colon
  TGI: > 100 µM
MDA-MB-435
  TGI: > 100 µM
SNB-19 CNS
  TGI: > 100 µM
NCI-H522 lung
  TGI: > 100 µM
A498 renal
  TGI: > 100 µM
RXF 393 renal
  TGI: > 100 µM
ACHN renal
  TGI: > 100 µM
MDA-N
  TGI: > 100 µM
PC-3 prostate
  TGI: > 100 µM
NCI-H226 lung
  TGI: > 100 µM
SW-620 colon
  TGI: > 100 µM
DU-145 prostate
  TGI: > 100 µM
MDA-MB-231 breast
  TGI: > 100 µM
LOX IMVI melanoma
  TGI: > 100 µM
UACC-257 melanoma
  TGI: > 100 µM
HS 578T breast
  TGI: > 100 µM
SK-MEL-2 melanoma
  TGI: > 100 µM
RPMI-8226 leukemia
  TGI: > 100 µM
OVCAR-4 ovarian
  TGI: > 100 µM
M14 melanoma
  TGI: > 100 µM
IGROV1 ovarian
  TGI: > 100 µM
SF-268 CNS
  TGI: > 100 µM
SK-MEL-28 melanoma
  TGI: > 100 µM
SK-OV-3 ovarian
  TGI: > 100 µM

## COC(=O)C(CCCCNC(=O)CNC(=O)OCc1ccccc1)NC(=O)C(CCCCNC(=O)CNC(=O)OCc1ccccc1)NC(=O)OCc1ccccc1 (stereo not given)
CAKI-1 renal
  TGI: > 100 µM
SN12C renal
  TGI: > 100 µM
SK-MEL-5 melanoma
  TGI: > 100 µM
MOLT-4 leukemia
  TGI: > 100 µM
HT29 colon
  TGI: > 100 µM
HL-60(TB) leukemia
  TGI: > 100 µM
BT-549 breast
  TGI: > 100 µM
HCT-116 colon
  TGI: > 100 µM
MALME-3M melanoma
  TGI: > 100 µM
OVCAR-5 ovarian
  TGI: > 100 µM
TK-10 renal
  TGI: > 100 µM
CCRF-CEM leukemia
  TGI: > 100 µM
HOP-62 NSCLC
  TGI: > 100 µM
NCI-H23 lung
  TGI: > 100 µM
SNB-75 CNS
  TGI: > 100 µM
UO-31 renal
  TGI: > 100 µM
T-47D breast
  TGI: > 100 µM
786-0 renal
  TGI: > 100 µM
NCI-H460 lung
  TGI: > 100 µM
A549 NSCLC
  TGI: > 100 µM
K-562 leukemia
  TGI: > 100 µM
OVCAR-3 ovarian
  TGI: > 100 µM
OVCAR-8 ovarian
  TGI: > 100 µM
U251 CNS
  TGI: > 100 µM
UACC-62 melanoma
  TGI: > 100 µM
HCT-15 colon
  TGI: > 100 µM
HCC-2998 colon
  TGI: > 100 µM
MDA-MB-435
  TGI: > 100 µM
SNB-19 CNS
  TGI: > 100 µM
A498 renal
  TGI: > 100 µM
SR leukemia
  TGI: > 100 µM
ACHN renal
  TGI: > 100 µM
MDA-N
  TGI: > 100 µM
PC-3 prostate
  TGI: > 100 µM
NCI-H226 lung
  TGI: > 100 µM
SW-620 colon
  TGI: > 100 µM
DU-145 prostate
  TGI: > 100 µM
MDA-MB-231 breast
  TGI: > 100 µM
LOX IMVI melanoma
  TGI: > 100 µM
UACC-257 melanoma
  TGI: > 100 µM
SK-MEL-2 melanoma
  TGI: 54.2 µM
RPMI-8226 leukemia
  TGI: 53.5 µM
OVCAR-4 ovarian
  TGI: 89.9 µM
M14 melanoma
  TGI: > 100 µM
MCF7 breast
  TGI: 19.1 µM
SF-268 CNS
  TGI: > 100 µM
SK-MEL-28 melanoma
  TGI: > 100 µM
